Source: patent US8952024B2, “Herbicidal pyrimidone derivatives” (E I du Pont de Nemours and Company, priority 2009, dated 2015)

Assays:
Format in all cases: in vivo
[1] = tested on: chickweed (Stellaria media); assay: Test B postemergence plant response
How it was run: (§1)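 Plants at the 1- to 4-leaf stage (2 to 18 cm tall), grown in pots of peat moss/vermiculite medium with wetting agent and starter nutrients, received postemergence applications of test chemicals. After 13 to 15 days in a greenhouse, injury was rated visually against untreated controls on a 0 (no effect) to 100 (complete control) scale.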

[2] = tested on: winter barley (Hordeum vulgare); assay: Test B postemergence plant response
How it was run: as §1

[3] = tested on: canarygrass (Phalaris minor); assay: Test B postemergence plant response
How it was run: as §1

[4] = tested on: windgrass (Apera spica-venti); assay: Test B postemergence plant response
How it was run: as §1

[5] = tested on: johnsongrass (Sorghum halepense); assay: Test B pre-/postemergence plant response
How it was run: (§2)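 Visual injury, 0–100 scale (100 = complete control), rated against controls after 13 to 15 days in greenhouse. Pre-emergence: seeds in loam/sand soil, treated at planting. Post-emergence: 1- to 4-leaf plants (2 to 18 cm) in peat/vermiculite medium. Compounds formulated in non-phytotoxic solvent with surfactant.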

[6] = tested on: yellow nutsedge (Cyperus esculentus); assay: Test B pre-/postemergence plant response
How it was run: as §2

[7] = tested on: giant foxtail (Setaria faberii); assay: Test B pre-/postemergence plant response
How it was run: as §2

[8] = tested on: goosegrass (Eleusine indica); assay: Test B pre-/postemergence plant response
How it was run: as §2

[9] = tested on: lambsquarters (Chenopodium album); assay: Test B pre-/postemergence plant response
How it was run: as §2

[10] = tested on: corn (Zea mays); assay: Test B pre-/postemergence plant response
How it was run: as §2

[11] = tested on: soybean (Glycine max); assay: Test B pre-/postemergence plant response
How it was run: as §2

[12] = tested on: pigweed (Amaranthus retroflexus); assay: Test B pre-/postemergence plant response
How it was run: as §2

[13] = tested on: velvetleaf (Abutilon theophrasti); assay: Test B pre-/postemergence plant response
How it was run: as §2

[14] = tested on: green foxtail (Setaria viridis); assay: Test B pre-/postemergence plant response
How it was run: as §2

[15] = Postemergence, 31 g ai/ha, scale 0 to 100 (0 no effect, 100 complete control)
[16] = Postemergence, 62 g ai/ha, scale 0 (no effect) to 100 (complete control), 13 to 15 days
[17] = Postemergence, 125 g ai/ha, visual rating after 13 to 15 days, scale 0 (no effect) to 100 (complete control)
[18] = Postemergence, 250 g ai/ha, scale 0 to 100
[19] = 31 g ai/ha, postemergence, scale 0 to 100, 0 is no effect, 100 is complete control
[20] = 62 g ai/ha, postemergence, 0 is no effect, 100 is complete control, 13 to 15 days
[21] = Postemergence, 250 g ai/ha, scale 0 to 100 (0 no effect, 100 complete control)

## Cc1ccc(-n2c(-c3ccccc3)ncc(C(=O)C3=C(O)CCCC3=O)c2=O)cc1 [Compound 8]
[1]; [15]
  Plant response rating, Chickweed: 98
[1]; [16]
  Plant response rating, Chickweed: 100
[1]; [17]
  Plant response rating, Chickweed: 100
[1]; [18]
  Chickweed plant response rating: 100
[2]; [15]
  Plant response rating, Barley: 0
[2]; [16]
  Plant response rating, Barley: 0
[2]; Postemergence, 125 g ai/ha, scale 0 to 100 (0 no effect, 100 complete control), 13 to 15 days
  Plant response rating, Barley: 5
[2]; [18]
  Barley plant response rating: 20
[3]; [15]
  Plant response rating, Canarygrass: 20
[3]; [16]
  Plant response rating, Canarygrass: 50
[3]; [17]
  Plant response rating, Canarygrass: 70
[3]; [18]
  Canarygrass plant response rating: 85
[4]; [15]
  Plant response rating, Windgrass: 5
[4]; [16]
  Plant response rating, Windgrass: 20
[4]; [17]
  Plant response rating, Windgrass: 30
[4]; [18]
  Windgrass plant response rating: 40
[5]; [15]
  Plant response rating, Johnsongrass: 80
[5]; [16]
  Plant response rating, Johnsongrass: 98
[5]; [17]
  Plant response rating, Johnsongrass: 98
[5]; [18]
  Johnsongrass plant response rating: 100
[6]; [15]
  Plant response rating, Nutsedge, Yellow: 65
[6]; [16]
  Plant response rating, Nutsedge, Yellow: 70
[6]; [17]
  Plant response rating, Nutsedge, Yellow: 80
[6]; [18]
  Nutsedge, Yellow plant response rating: 85
[7]; [15]
  Plant response rating, Foxtail, Giant: 98
[7]; [16]
  Plant response rating, Foxtail, Giant: 100
[7]; [17]
  Plant response rating, Foxtail, Giant: 100
[7]; [18]
  Foxtail, Giant plant response rating: 100
[8]; [15]
  Plant response rating, Goosegrass: 80
[8]; [16]
  Plant response rating, Goosegrass: 85
[8]; [17]
  Plant response rating, Goosegrass: 95
[8]; [18]
  Goosegrass plant response rating: 100
[9]; [15]
  Plant response rating, Lambsquarters: 95
[9]; [16]
  Plant response rating, Lambsquarters: 100
[9]; [17]
  Plant response rating, Lambsquarters: 100
[9]; [18]
  Lambsquarters plant response rating: 100
[10]; [15]
  Plant response rating, Corn: 15
[10]; [16]
  Plant response rating, Corn: 65
[10]; [17]
  Plant response rating, Corn: 75
[10]; [18]
  Corn plant response rating: 80
[11]; [15]
  Plant response rating, Soybean: 98
[11]; [16]
  Plant response rating, Soybean: 98
[11]; [17]
  Plant response rating, Soybean: 98
[11]; [18]
  Soybean plant response rating: 100
[12]; [15]
  Plant response rating, Pigweed: 98
[12]; [16]
  Plant response rating, Pigweed: 100
[12]; [17]
  Plant response rating, Pigweed: 100
[12]; [18]
  Pigweed plant response rating: 100
[13]; [15]
  Plant response rating, Velvetleaf: 75
[13]; [16]
  Plant response rating, Velvetleaf: 80
[13]; [17]
  Plant response rating, Velvetleaf: 95
[13]; [18]
  Velvetleaf plant response rating: 100
[14]; [15]
  Plant response rating, Foxtail, Green: 40
[14]; [16]
  Plant response rating, Foxtail, Green: 70
[14]; [17]
  Plant response rating, Foxtail, Green: 85
[14]; [18]
  Foxtail, Green plant response rating: 95

## O=C1CCCC(O)=C1C(=O)c1cnc(-c2ccccc2Br)n(-c2ccccc2)c1=O [Compound 71]
[1]; [19]
  Plant response rating, Chickweed: 75
[1]; [20]
  Chickweed plant response rating (0 to 100 scale): 90
[1]; [17]
  Plant response rating, Chickweed: 95
[1]; [21]
  Plant response rating, Chickweed: 98
[2]; [19]
  Plant response rating, Barley: 0
[2]; [20]
  Barley plant response rating (0 to 100 scale): 0
[2]; [17]
  Plant response rating, Barley: 0
[2]; [21]
  Plant response rating, Barley: 5
[3]; [19]
  Plant response rating, Canarygrass: 0
[3]; [20]
  Canarygrass plant response rating (0 to 100 scale): 5
[3]; [17]
  Plant response rating, Canarygrass: 5
[3]; [21]
  Plant response rating, Canarygrass: 20
[4]; [19]
  Plant response rating, Windgrass: 5
[4]; [20]
  Windgrass plant response rating (0 to 100 scale): 10
[4]; [17]
  Plant response rating, Windgrass: 45
[4]; [21]
  Plant response rating, Windgrass: 60
[5]; [19]
  Plant response rating, Johnsongrass: 65
[5]; [20]
  Johnsongrass plant response rating (0 to 100 scale): 75
[5]; [17]
  Plant response rating, Johnsongrass: 98
[5]; [21]
  Plant response rating, Johnsongrass: 100
[6]; [19]
  Plant response rating, Nutsedge, Yellow: 10
[6]; [20]
  Nutsedge, Yellow plant response rating (0 to 100 scale): 10
[6]; [17]
  Plant response rating, Nutsedge, Yellow: 10
[6]; [21]
  Plant response rating, Nutsedge, Yellow: 25
[7]; [19]
  Plant response rating, Foxtail, Giant: 20
[7]; [20]
  Foxtail, Giant plant response rating (0 to 100 scale): 75
[7]; [17]
  Plant response rating, Foxtail, Giant: 80
[7]; [21]
  Plant response rating, Foxtail, Giant: 95
[8]; [19]
  Plant response rating, Goosegrass: 75
[8]; [20]
  Goosegrass plant response rating (0 to 100 scale): 75
[8]; [17]
  Plant response rating, Goosegrass: 90
[8]; [21]
  Plant response rating, Goosegrass: 90
[9]; [19]
  Plant response rating, Lambsquarters: 75
[9]; [20]
  Lambsquarters plant response rating (0 to 100 scale): 85
[9]; [17]
  Plant response rating, Lambsquarters: 90
[9]; [21]
  Plant response rating, Lambsquarters: 98
[10]; [19]
  Plant response rating, Corn: 0
[10]; [20]
  Corn plant response rating (0 to 100 scale): 0
[10]; [17]
  Plant response rating, Corn: 0
[10]; [21]
  Plant response rating, Corn: 15
[11]; [19]
  Plant response rating, Soybean: 65
[11]; [20]
  Soybean plant response rating (0 to 100 scale): 70
[11]; [17]
  Plant response rating, Soybean: 95
[11]; [21]
  Plant response rating, Soybean: 98
[12]; [19]
  Plant response rating, Pigweed: 85
[12]; [20]
  Pigweed plant response rating (0 to 100 scale): 85
[12]; [17]
  Plant response rating, Pigweed: 98
[12]; [21]
  Plant response rating, Pigweed: 100
[13]; [19]
  Plant response rating, Velvetleaf: 75
[13]; [20]
  Velvetleaf plant response rating (0 to 100 scale): 85
[13]; [17]
  Plant response rating, Velvetleaf: 90
[13]; [21]
  Plant response rating, Velvetleaf: 95
[14]; [19]
  Plant response rating, Foxtail, Green: 60
[14]; [20]
  Foxtail, Green plant response rating (0 to 100 scale): 60
[14]; [17]
  Plant response rating, Foxtail, Green: 70
[14]; [21]
  Plant response rating, Foxtail, Green: 98
